Holding throughout (type): functional
The target in one test is T1, Leucine aminopeptidase (Plasmodium falciparum 3D7, UniProt Q8IL11).
T1 sequence (Q8IL11 whole entry): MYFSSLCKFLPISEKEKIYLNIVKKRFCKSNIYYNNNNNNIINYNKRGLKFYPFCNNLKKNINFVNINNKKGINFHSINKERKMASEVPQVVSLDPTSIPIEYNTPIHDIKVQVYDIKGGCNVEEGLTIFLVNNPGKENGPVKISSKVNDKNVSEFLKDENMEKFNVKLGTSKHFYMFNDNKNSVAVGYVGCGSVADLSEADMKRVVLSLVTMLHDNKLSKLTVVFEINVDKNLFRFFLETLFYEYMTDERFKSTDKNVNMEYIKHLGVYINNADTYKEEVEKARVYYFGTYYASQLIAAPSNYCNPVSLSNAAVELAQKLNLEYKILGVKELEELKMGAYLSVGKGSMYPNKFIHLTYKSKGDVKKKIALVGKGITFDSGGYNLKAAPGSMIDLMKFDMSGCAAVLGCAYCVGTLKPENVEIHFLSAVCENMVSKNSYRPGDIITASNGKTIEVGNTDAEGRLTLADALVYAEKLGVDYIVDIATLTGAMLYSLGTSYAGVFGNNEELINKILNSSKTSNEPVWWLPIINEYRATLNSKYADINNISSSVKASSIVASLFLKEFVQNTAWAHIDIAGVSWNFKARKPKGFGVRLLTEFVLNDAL
The test is described as follows: P. falciparum M17LAP inhibitors, primary screen, biochemical, fluorogenic H-Leu-NHMec substrate, 1536-well (AID 1619).

The target of a further test is Cysteine protease ATG4B (Homo sapiens, UniProt Q9Y4P1).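 Also: Fluorescence-based dose-response confirmation assay measuring inhibition of ATG4B activity.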
Cysteine protease ATG4B, sequence (Q9Y4P1 whole entry): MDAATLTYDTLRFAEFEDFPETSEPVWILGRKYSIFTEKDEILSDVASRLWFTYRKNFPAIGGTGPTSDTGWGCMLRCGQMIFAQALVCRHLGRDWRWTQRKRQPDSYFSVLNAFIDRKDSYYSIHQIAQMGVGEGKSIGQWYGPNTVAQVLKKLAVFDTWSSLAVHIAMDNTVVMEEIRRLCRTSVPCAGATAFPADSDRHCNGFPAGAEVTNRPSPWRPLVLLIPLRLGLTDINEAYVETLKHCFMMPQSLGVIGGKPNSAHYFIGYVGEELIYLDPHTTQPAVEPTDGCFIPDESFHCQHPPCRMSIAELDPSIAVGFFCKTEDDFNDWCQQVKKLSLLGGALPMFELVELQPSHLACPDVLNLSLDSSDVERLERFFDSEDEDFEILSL
The next test has as its target Phospholipase A2 (Homo sapiens, UniProt P04054).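 Also: confirmatory dose-response counterscreen on phospholipase A2, testing hits that came from an ultra-high-throughput screen for ATG4B inhibitors.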
Test [1] has as its target Apoptotic protease-activating factor 1 (Homo sapiens, UniProt O14727).
In test [2] the target is T2, Corticotropin-releasing factor receptor 2/Corticotropin-releasing factor-binding protein (Homo sapiens, UniProt P24387+Q13324).
T2 sequence (Q13324 whole entry): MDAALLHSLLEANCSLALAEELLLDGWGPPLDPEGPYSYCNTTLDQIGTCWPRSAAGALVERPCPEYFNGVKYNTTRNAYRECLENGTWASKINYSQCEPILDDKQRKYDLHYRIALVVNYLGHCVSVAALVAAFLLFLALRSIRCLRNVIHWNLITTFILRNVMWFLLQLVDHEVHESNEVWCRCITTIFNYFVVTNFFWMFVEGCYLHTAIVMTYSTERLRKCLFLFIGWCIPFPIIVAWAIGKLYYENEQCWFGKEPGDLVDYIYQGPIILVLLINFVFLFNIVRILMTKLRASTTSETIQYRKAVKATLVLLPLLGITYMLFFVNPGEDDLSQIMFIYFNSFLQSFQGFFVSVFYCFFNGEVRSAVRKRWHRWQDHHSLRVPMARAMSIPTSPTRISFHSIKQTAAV
T2 sequence (P24387 whole entry): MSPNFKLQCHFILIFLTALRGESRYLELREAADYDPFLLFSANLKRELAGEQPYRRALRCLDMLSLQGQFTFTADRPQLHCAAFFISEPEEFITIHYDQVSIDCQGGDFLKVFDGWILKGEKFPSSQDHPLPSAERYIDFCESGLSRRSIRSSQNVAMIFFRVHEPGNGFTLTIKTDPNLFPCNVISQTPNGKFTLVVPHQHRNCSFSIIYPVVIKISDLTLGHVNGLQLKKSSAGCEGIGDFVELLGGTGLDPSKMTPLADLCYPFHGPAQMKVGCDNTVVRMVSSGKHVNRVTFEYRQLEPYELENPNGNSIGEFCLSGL
The test is described as follows: Dose Response confirmation of uHTS hits for small molecule antagonists of the CRF-binding protein and CRF-R2 receptor complex. The note with it: read-out: IC50_Mean.

Test [3] has as its target T2, Corticotropin-releasing factor receptor 2/Corticotropin-releasing factor-binding protein. The test is described as follows: activators of CRF receptor 2 with binding protein – uHTS hits, confirmation (AID 602473). To be noted: read-out: EC50_Mean.
For test [4], the target named is T3, Sentrin-specific protease 8 (Homo sapiens, UniProt Q96LD8).
T3 sequence (Q96LD8 whole entry): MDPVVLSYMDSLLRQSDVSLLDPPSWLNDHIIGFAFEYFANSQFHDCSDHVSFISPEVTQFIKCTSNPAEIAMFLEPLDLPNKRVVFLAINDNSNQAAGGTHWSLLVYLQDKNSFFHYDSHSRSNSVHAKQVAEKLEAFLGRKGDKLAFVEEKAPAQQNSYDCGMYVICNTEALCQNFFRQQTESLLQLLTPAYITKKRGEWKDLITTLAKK
The test is described as follows: SENP8 protease inhibitors, SAR follow-up, biochemical, luminescence (AID 504501).

For another test, the target named is T4, Caspase-3 (Homo sapiens, UniProt P42574).
T4 sequence (P42574 whole entry): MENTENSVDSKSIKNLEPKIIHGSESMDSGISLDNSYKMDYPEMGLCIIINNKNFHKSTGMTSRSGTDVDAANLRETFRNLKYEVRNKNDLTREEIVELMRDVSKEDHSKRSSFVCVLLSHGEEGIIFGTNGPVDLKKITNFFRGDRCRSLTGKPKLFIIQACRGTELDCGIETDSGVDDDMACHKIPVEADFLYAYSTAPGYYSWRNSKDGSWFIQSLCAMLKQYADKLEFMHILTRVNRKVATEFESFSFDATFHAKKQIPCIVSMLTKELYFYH
The test is described as follows: SAR Analysis of small molecule inhibitors of Sentrin-specific proteases (SENPs) using a Caspase-3 Selectivity assay. [Related pubchem assays (depositor defined):AID2540, AID2599, AID434973, AID489001].

Test [5] deals with T5, Sentrin-specific protease 6 (Homo sapiens, UniProt Q9GZR1).
T5 sequence (Q9GZR1 whole entry): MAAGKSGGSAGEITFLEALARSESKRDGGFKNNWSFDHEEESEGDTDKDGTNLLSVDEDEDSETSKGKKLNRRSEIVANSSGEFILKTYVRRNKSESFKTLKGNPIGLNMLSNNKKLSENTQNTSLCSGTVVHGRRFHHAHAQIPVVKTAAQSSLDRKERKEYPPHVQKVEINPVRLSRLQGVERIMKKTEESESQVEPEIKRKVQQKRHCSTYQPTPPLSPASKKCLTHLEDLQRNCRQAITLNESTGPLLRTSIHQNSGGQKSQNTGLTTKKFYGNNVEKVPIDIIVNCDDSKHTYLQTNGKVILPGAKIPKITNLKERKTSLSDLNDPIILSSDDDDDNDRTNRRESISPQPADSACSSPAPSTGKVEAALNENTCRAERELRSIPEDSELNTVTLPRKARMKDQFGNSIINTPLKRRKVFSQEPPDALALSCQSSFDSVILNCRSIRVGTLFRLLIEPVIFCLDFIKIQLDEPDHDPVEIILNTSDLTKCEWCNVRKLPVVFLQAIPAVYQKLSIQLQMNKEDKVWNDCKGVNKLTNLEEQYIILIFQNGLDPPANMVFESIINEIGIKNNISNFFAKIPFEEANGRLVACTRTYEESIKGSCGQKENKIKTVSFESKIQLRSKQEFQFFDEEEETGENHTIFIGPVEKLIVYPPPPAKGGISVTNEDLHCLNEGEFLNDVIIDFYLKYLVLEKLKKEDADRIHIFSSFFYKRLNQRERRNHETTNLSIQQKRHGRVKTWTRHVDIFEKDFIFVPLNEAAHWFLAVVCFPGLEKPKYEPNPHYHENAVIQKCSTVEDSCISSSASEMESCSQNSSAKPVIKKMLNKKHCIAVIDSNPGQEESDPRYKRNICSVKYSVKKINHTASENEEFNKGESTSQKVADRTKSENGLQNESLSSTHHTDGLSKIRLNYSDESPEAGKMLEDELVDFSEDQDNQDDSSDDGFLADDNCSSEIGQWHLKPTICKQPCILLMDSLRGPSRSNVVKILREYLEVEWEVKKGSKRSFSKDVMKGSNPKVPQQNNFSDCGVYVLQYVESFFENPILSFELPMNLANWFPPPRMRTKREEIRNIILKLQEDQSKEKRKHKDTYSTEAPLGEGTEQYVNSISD
The test is described as follows: SAR Analysis of small molecule inhibitors of Sentrin-specific protease 6 (SENP6) using a Luminescent assay. [Related pubchem assays (depositor defined):AID2582, AID2599].

Test [6] deals with T6, Sentrin-specific protease 7 (Homo sapiens, UniProt Q9BQF6).
T6 sequence (Q9BQF6 whole entry): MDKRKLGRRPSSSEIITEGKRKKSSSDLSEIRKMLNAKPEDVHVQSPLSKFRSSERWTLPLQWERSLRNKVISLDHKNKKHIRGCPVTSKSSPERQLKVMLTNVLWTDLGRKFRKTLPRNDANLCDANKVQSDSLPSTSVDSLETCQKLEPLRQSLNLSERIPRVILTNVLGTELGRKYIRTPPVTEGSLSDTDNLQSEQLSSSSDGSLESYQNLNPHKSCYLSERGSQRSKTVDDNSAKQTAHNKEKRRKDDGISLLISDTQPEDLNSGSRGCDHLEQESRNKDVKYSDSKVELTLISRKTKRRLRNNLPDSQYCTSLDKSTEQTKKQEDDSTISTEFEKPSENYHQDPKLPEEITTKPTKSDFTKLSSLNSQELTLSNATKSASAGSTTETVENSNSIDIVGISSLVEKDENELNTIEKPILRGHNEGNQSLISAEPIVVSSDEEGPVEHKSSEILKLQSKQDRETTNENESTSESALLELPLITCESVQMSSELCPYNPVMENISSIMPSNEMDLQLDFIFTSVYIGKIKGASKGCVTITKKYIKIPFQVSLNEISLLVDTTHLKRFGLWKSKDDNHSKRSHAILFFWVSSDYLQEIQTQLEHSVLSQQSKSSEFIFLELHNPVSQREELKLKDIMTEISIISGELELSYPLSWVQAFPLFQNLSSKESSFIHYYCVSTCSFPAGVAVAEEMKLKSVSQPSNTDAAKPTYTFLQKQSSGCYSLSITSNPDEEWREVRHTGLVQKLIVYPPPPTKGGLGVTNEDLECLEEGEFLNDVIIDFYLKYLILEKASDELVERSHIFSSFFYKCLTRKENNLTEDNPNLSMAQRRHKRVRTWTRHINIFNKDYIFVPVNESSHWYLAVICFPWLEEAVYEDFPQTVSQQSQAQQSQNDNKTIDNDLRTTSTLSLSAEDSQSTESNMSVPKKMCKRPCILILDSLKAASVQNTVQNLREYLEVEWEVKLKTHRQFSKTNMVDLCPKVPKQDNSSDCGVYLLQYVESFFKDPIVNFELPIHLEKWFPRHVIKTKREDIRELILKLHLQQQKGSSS
The test is described as follows: SENP7 protease inhibitors, SAR follow-up, biochemical, luminescence (AID 504497).

The source made the active and inactive calls. Rule as the data show it, for most assays here: actives have a measured IC50 and inactives only a lower limit.

Drawing on ChEMBL document CHEMBL1201862, “PubChem BioAssay data set” (2004), this text covers IC50 and EC50 for 3 molecules.

Apoptotic protease-activating factor 1, sequence (O14727 whole entry): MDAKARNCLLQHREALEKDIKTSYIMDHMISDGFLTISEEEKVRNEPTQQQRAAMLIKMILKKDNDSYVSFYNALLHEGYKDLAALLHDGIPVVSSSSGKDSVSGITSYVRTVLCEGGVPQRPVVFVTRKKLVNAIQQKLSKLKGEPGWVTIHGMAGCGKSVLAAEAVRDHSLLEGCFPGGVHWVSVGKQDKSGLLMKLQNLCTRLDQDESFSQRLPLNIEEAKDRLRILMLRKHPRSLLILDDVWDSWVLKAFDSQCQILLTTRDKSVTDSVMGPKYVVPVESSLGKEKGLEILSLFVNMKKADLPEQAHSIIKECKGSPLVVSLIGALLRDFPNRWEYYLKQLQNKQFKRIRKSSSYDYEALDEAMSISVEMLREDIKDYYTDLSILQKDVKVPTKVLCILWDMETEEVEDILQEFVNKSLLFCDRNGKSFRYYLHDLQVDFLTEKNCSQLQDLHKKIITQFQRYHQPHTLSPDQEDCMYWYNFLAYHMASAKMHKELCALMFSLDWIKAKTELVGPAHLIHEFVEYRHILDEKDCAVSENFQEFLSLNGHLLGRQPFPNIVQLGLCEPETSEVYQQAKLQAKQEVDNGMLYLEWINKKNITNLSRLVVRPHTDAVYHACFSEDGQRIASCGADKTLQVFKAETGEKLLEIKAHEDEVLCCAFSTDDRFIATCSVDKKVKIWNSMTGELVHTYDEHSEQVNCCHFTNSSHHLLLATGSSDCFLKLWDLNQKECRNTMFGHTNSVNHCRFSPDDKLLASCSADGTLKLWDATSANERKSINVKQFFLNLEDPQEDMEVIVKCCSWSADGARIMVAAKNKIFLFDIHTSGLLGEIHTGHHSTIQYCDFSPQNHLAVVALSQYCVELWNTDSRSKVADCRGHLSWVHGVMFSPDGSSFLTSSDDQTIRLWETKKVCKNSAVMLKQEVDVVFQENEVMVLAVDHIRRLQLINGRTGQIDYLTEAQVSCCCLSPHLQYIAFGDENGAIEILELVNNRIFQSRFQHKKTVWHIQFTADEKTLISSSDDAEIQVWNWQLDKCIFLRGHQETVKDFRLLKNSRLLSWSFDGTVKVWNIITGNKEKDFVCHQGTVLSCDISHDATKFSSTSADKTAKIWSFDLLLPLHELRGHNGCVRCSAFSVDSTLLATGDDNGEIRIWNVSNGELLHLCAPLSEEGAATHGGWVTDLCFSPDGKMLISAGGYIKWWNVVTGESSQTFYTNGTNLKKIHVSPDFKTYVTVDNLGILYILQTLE
Phospholipase A2, sequence (P04054 whole entry): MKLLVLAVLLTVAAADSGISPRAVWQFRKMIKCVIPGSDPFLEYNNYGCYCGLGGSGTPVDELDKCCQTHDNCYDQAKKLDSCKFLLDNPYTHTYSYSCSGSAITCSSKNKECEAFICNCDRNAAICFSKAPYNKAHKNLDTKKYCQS

Regarding `CCOc1cc(/C=C2/SC(=O)N(CC(=O)N3CCc4ccccc4C3)C2=O)ccc1OCC(=O)O`, the IC50 on Leucine aminopeptidase is 10.6 µM (active); at Cysteine protease ATG4B, 15 µM (active); on Phospholipase A2, 11 µM (active).
As for `CCCCCn1c(=O)c(C(=O)Nc2c(C)n(C)n(-c3ccccc3)c2=O)c(O)c2ccccc21`, the IC50 was > 100 µM (inactive) in test [1] and > 47.1 µM (inactive) in test [2]. Besides, the EC50 in test [3] was > 53 µM (inactive).
Regarding `Oc1ccc(Br)cc1/C=N/Nc1cc(N2CCCC2)nc(N2CCCC2)n1`, the IC50 (in test [4]; at Caspase-3; in test [5]; in [6]) was > 99 µM (inactive) in each case.
